According to patent US9096565B2, “Inhibitors of histone deacetylase” (MethylGene Inc., priority 2007, dated 2015):

Target: one or more of HDAC-4, HDAC-5, HDAC-6, HDAC-7, HDAC-8, HDAC-9, HDAC-10 and HDAC-11
Experiment: Inhibition of histone deacetylase enzymatic activity (summary statement over isoforms)
Format: biochemical
Conditions: Table 3, selected examples; HDAC isoform not given
Method: The following protocol is used to assay the compounds of the invention.
The mixture is pre-incubated for 5 minutes at room temperature. The reaction is started by bringing the temperature to 37° C. and adding 15 μL substrate. Total reaction volume is 50 μL.
A 30 mM stock of Boc-Lys(trifluoroacetyl)-AMC substrate is prepared in DMSO. […] Reaction is started by adding 18 μL Boc-Lys(trifluoroacetyl)-AMC substrate and incubating at 37° C. for 20-30 minutes. The reaction is stopped by adding 50 μL trypsin (1 mg/mL) and a known HDAC inhibitor.

Row | SMILES | IC50 [nM]
1 | O=C(NO)C(c1ccccc1)c1ccc(-n2cccn2)cc1 (stereo not drawn) [Compound 5-72, 2-(4-(1H-pyrazol-1-yl)phenyl)-N-hydroxy-2-phenylacetamide] | < 1000
2 | O=C(NO)C1c2ccccc2CCc2ccccc21 [Compound 5-31] | 1000 to 15000
3 | CC(Oc1ccc(C(C(=O)NO)c2ccccc2)cc1)c1ccccc1 (stereo not drawn) [Compound 3-59, N-hydroxy-2-phenyl-2-(4-(1-phenylethoxy)phenyl)acetamide] | < 1000
4 | O=C(NO)C(Oc1ccc(-c2ccccc2)cc1)c1ccccc1 (stereo not drawn) [Compound 5-14, 2-(biphenyl-4-yloxy)-N-hydroxy-2-phenylacetamide] | 1000 to 15000
5 | CCCS(=O)(=O)Nc1cccc(C(C(=O)NO)c2ccccc2)c1 (stereo not drawn) [Compound 2-87, N-hydroxy-2-phenyl-2-(3-(propylsulfonamido)phenyl)acetamide] | 1000 to 15000
6 | CN(C)C(=O)c1ccc(-c2ccc(C(C(=O)NO)c3ccccc3)cc2)cc1 (stereo not drawn) [Compound 2-116, 4′-(2-(hydroxyamino)-2-oxo-1-phenylethyl)-N,N-dimethylbiphenyl-4-carboxamide] | < 1000
7 | O=C(NO)C(c1ccc(N2CCOCC2)cc1)c1c(F)cccc1F (stereo not drawn) [Compound 6-24, 2-(2,6-difluorophenyl)-N-hydroxy-2-(4-morpholinophenyl)acetamide] | 1000 to 15000
8 | O=C(NO)C(c1ccccc1)N1CCC(O)(c2ccccc2)CC1 (stereo not drawn) [Compound 5-1, N-hydroxy-2-(4-hydroxy-4-phenylpiperidin-1-yl)-2-phenylacetamide] | < 1000
9 | O=C(NO)C(c1ccc(N2CCOCC2)cc1)c1cccs1 (stereo not drawn) [Compound 5-104, N-hydroxy-2-(4-morpholinophenyl)-2-(thiophen-2-yl)acetamide] | < 1000
10 | Cc1cccc(OC(C(=O)NO)c2ccccc2)c1 (stereo not drawn) [Compound 7-2, N-hydroxy-2-phenyl-2-(m-tolyloxy)acetamide] | 1000 to 15000
11 | O=C(NO)C(c1ccccc1)c1nnc(Cc2c[nH]c3ccccc23)s1 (stereo not drawn) [Compound 5-3, 2-(5-((1H-indol-3-yl)methyl)-1,3,4-thiadiazol-2-yl)-N-hydroxy-2-phenylacetamide] | < 1000
12 | Cc1cccc(COc2cccc(C(C(=O)NO)c3ccccc3)c2)c1 (stereo not drawn) [Compound 3-33, N-hydroxy-2-(3-(3-methylbenzyloxy)phenyl)-2-phenylacetamide] | 1000 to 15000
13 | Cc1ccccc1NC(=O)N1CCN(C(C(=O)NO)c2ccccc2)CC1 (stereo not drawn) [Compound 2-36, 4-(2-(hydroxyamino)-2-oxo-1-phenylethyl)-N-o-tolylpiperazine-1-carboxamide] | 1000 to 15000
14 | O=C(NO)C(c1ccc(N2CCOCC2)cc1)c1ccccc1O (stereo not drawn) [Compound 6-26, N-hydroxy-2-(2-hydroxyphenyl)-2-(4-morpholinophenyl)acetamide] | 1000 to 15000
15 | O=C(NO)C(c1ccccc1)c1ccc(N2CCN(c3ccc(F)cc3)CC2)cc1 (stereo not drawn) [Compound 3-84, 2-(4-(4-(4-fluorophenyl)piperazin-1-yl)phenyl)-N-hydroxy-2-phenylacetamide] | < 1000
16 | O=C(Cc1ccccc1)Nc1cccc(C(C(=O)NO)c2ccccc2)c1 (stereo not drawn) [Compound 2-60, N-hydroxy-2-phenyl-2-(3-(2-phenylacetamido)phenyl)acetamide] | < 1000
17 | O=C(NO)C(c1ccccc1)c1ccc(OCc2ccc(F)cc2F)cc1 (stereo not drawn) [Compound 3-67, 2-(4-(2,4-difluorobenzyloxy)phenyl)-N-hydroxy-2-phenylacetamide] | < 1000
18 | CC(C)(C)C(=O)N1CCCN(C(C(=O)NO)c2ccccc2)CC1 (stereo not drawn) [Compound 2-24, N-hydroxy-2-phenyl-2-(4-pivaloyl-1,4-diazepan-1-yl)acetamide] | 1000 to 15000

Row | SMILES | IC50 [nM]
19 | Cc1cc(C(=O)Nc2ccc(C(C(=O)NO)c3ccccc3)cc2)c(C)o1 (stereo not drawn) [Compound 2-63, N-(4-(2-(hydroxyamino)-2-oxo-1-phenylethyl)phenyl)-2,5-dimethylfuran-3-carboxamide] | < 1000
20 | O=C(NO)C(c1ccccc1)c1ccc(C#Cc2cccnc2)cc1 (stereo not drawn) [Compound 5-63, N-hydroxy-2-phenyl-2-(4-(pyridin-3-ylethynyl)phenyl)acetamide] | < 1000
21 | O=C(NO)C1c2ccccc2N(Cc2ccccc2)c2ccccc21 [Compound 5-56, 10-benzyl-N-hydroxy-9,10-dihydroacridine-9-carboxamide] | < 1000
22 | CCOc1cccc(C(C(=O)NO)c2ccccc2)c1 (stereo not drawn) [Compound 3-22, 2-(3-ethoxyphenyl)-N-hydroxy-2-phenylacetamide] | < 1000
23 | Cc1cccc(C(=O)N2CCCN(C(C(=O)NO)c3ccccc3)CC2)c1 (stereo not drawn) [Compound 2-29, N-hydroxy-2-(4-(3-methylbenzoyl)-1,4-diazepan-1-yl)-2-phenylacetamide] | 1000 to 15000
24 | C#CCOc1ccc(C(C(=O)NO)c2ccccc2)cc1 (stereo not drawn) [Compound 3-45, N-hydroxy-2-phenyl-2-(4-(prop-2-ynyloxy)phenyl)acetamide] | < 1000
25 | COc1cccc(CNc2ccc(C(C(=O)NO)c3ccccc3)cc2)c1 (stereo not drawn) [Compound 2-84, N-hydroxy-2-(4-(3-methoxybenzylamino)phenyl)-2-phenylacetamide] | < 1000
26 | O=C(NO)C(c1ccccc1)c1ccc(-c2cccnc2)cc1 (stereo not drawn) [Compound 5-12, N-hydroxy-2-phenyl-2-(4-(pyridin-3-yl)phenyl)acetamide] | < 1000
27 | Cc1ccc(S(=O)(=O)N2CCN(C3(C(=O)NO)CCc4ccccc43)CC2)cc1 (stereo not drawn) [Compound 6-18, N-hydroxy-1-(4-(p-tolylsulfonyl)piperazin-1-yl)-2,3-dihydro-1H-indene-1-carboxamide] | 1000 to 15000
28 | O=C(NO)C(c1ccccc1)N1CCC(N2CCOCC2)CC1 (stereo not drawn) [Compound 2-42, N-hydroxy-2-(4-morpholinopiperidin-1-yl)-2-phenylacetamide] | 1000 to 15000
29 | O=C(NO)C(c1ccccc1)N1CCN(S(=O)(=O)Cc2ccccc2)CC1 (stereo not drawn) [Compound 5-87, 2-(4-(benzylsulfonyl)piperazin-1-yl)-N-hydroxy-2-phenylacetamide] | 1000 to 15000
30 | CC(C)(C)c1ccc(OC(C(=O)NO)c2ccccc2)cc1 (stereo not drawn) [Compound 7-37, 2-(4-tert-butylphenoxy)-N-hydroxy-2-phenylacetamide] | 1000 to 15000
31 | O=C(NO)C(c1ccccc1)c1ccc(NCc2ccc(F)cc2)cc1 (stereo not drawn) [Compound 2-51, 2-(4-(4-fluorobenzylamino)phenyl)-N-hydroxy-2-phenylacetamide] | < 1000
32 | O=C(NO)C(c1ccc(N2CCOCC2)cc1)c1ccsc1 (stereo not drawn) [Compound 5-112, N-hydroxy-2-(4-morpholinophenyl)-2-(thiophen-3-yl)acetamide] | < 1000
33 | CC(C)CCOc1cccc(C(C(=O)NO)c2ccccc2)c1 (stereo not drawn) [Compound 3-30, N-hydroxy-2-(3-(isopentyloxy)phenyl)-2-phenylacetamide] | 1000 to 15000
34 | CN(C)c1ccc(C(C(=O)NO)c2ccccc2)c2ccccc12 (stereo not drawn) [Compound 5-32, 2-(4-(dimethylamino)naphthalen-1-yl)-N-hydroxy-2-phenylacetamide] | 1000 to 15000
35 | Cc1cc(C)cc(COc2cccc(C(C(=O)NO)c3ccccc3)c2)c1 (stereo not drawn) [Compound 3-35, 2-(3-(3,5-dimethylbenzyloxy)phenyl)-N-hydroxy-2-phenylacetamide] | < 1000
36 | CC(COc1cccc(C(C(=O)NO)c2ccccc2)c1)CN(C)C (stereo not drawn) [Compound 3-17, 2-(3-(3-(dimethylamino)-2-methylpropoxy)phenyl)-N-hydroxy-2-phenylacetamide] | < 1000
